Among the data in patent publication US20260070945A1, “MACROCYCLIC IMMUNOMODULATORS” (Bristol-Myers Squibb Company, priority 2022, published 2026) are IC50 values, retold here.

The term IC50 denotes the midpoint of a concentration-inhibition curve.

*1 amine or outer side, *2 acyl side, *3 side chain or, on linkers, in order; H or OH if unused. Where a SMILES comes first, the peptide text is derived from it. Bridges are numbered along the chain shown (N, C = ends). [ ]: non-standard residue; d: D form. The star is where a group is joined. ξ: configuration not given here. Phe(3-CF3) = N[C@@H](Cc1cccc(C(F)(F)F)c1)C(=O)O; Phe(4-COOH) = N[C@@H](Cc1ccc(C(=O)O)cc1)C(=O)O; Bip = N[C@@H](Cc1ccc(-c2ccccc2)cc1)C(=O)O; Phe(3-Me) = Cc1cccc(C[C@H](N)C(=O)O)c1; Phe(4-F) = N[C@@H](Cc1ccc(F)cc1)C(=O)O; γGlu = O=C(O)[C@H](CCC(=O)[*:2])N[*:1]; βAsp = O=C(O)[C@H](CC(=O)[*:2])N[*:1]; NH(CH2)12COOH = O=C(O)CCCCCCCCCCCCN*; Val(3-OH) = CC(C)(O)[C@H](N)C(=O)O; aIle = CC[C@@H](C)[C@H](N)C(=O)O; 4Pal = N[C@@H](Cc1ccncc1)C(=O)O; 3Thi = N[C@@H](Cc1ccsc1)C(=O)O; Cha = N[C@@H](CC1CCCCC1)C(=O)O; Cit = NC(=O)NCCC[C@H](N)C(=O)O; Thr(3ξ) = CC(O)[C@H](N)C(=O)O; 12Ado = NCCCCCCCCCCCC(=O)O; Carboxymethyl = O=C(O)C*; NMeA = CN[C@@H](C)C(=O)O; Orn = NCCC[C@H](N)C(=O)O; Aun = NCCCCCCCCCCC(=O)O; Dab = NCC[C@H](N)C(=O)O; AEEA = NCCOCCOCC(=O)O

T1 sequence (Q15116 25-288): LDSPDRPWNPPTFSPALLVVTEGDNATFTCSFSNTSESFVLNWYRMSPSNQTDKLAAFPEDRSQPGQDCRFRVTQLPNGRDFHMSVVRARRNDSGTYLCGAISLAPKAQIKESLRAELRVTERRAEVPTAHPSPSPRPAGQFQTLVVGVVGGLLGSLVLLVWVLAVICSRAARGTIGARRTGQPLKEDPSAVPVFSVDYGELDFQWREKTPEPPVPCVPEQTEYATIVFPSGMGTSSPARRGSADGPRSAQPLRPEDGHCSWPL

The first assay addresses T1, PD-1/PD-L1 interaction (PE-labeled human PD-L1-Ig binding to Jurkat cell line over-expressing human PD-1) (Homo sapiens, UniProt Q15116).
T1 construct: expressed in transfected cells; host or cells: Jurkat
Put plainly: Jurkat-PD-1 Cell Binding High-Content Screening Assay (CBA). The following applies: Jurkat-hPD-1 cells, PE-labeled PD-L1-Ig 20 nM final; read-out: Jurkat HPD1 PDL1 IC50. The gist of the method:
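High-content imaging read-out of PE-PD-L1-Ig binding (20 nM final, 1 h) to Jurkat-hPD-1 cells, after 2 h compound exposure at 37 °C in DMEM with 10% FCS. Nuclei counterstained with Hoechst 33342 after paraformaldehyde fixation.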
Consider `Cc1cccc(C[C@@H]2NC(=O)[C@H](CC(=O)O)NC(=O)[C@H](Cc3ccc(C(=O)O)cc3)NC(=O)[C@H](Cc3ccc(OCC(=O)O)cc3)NC(=O)CSC[C@@H](C(=O)NCCOCCOCC(=O)NCCCCCCCCCCC(=O)O)NC(=O)[C@H](CCCCN)NC(=O)[C@H](C(C)C)NC(=O)[C@H](CC3CCCCC3)NC(=O)[C@H](CCN)NC(=O)[C@@H](CC(C)C)NC(=O)[C@H](C)N(C)C(=O)[C@H](C(C)C)NC(=O)[C@H](Cc3ccc(-c4ccccc4)cc3)NC(=O)[C@H](CC(C)C)NC2=O)c1` [Example 2231] ({CH2CO}-Y(Carboxymethyl)[Phe(4-COOH)]D[Phe(3-Me)]L[Bip]V[NMeA][dL][Dab][Cha]VKC[AEEA][Aun]-OH; thioether N-14), for which the IC50 came out at 0.0033 µM.
Same read-out and setting: the value for `COC[C@@H]1NC(=O)CSC[C@@H](C(=O)N[C@@H](CCN)C(=O)NCCOCCOCC(=O)N[C@@H](CCC(=O)NCCOCCOCC(=O)NCCCCCCCCCCCCC(=O)O)C(=O)O)NC(=O)[C@H](CO)NC(=O)[C@H](C(C)(C)O)NC(=O)[C@H](CC2CCCCC2)NC(=O)[C@H](CCN)NC(=O)[C@@H](CC(C)C)NC(=O)[C@H](C)N(C)C(=O)[C@H](Cc2ccc(C(=O)O)cc2)NC(=O)[C@H](Cc2ccc(-c3ccccc3)cc2)NC(=O)[C@H](Cc2ccc(C(=O)O)cc2)NC(=O)[C@H](Cc2cccc(C(F)(F)F)c2)NC(=O)[C@H](CC(=O)O)NC(=O)[C@H](Cc2ccc(OCC(=O)O)cc2)NC1=O` [Example 1170] ({CH2CO}-S(Me)Y(Carboxymethyl)D[Phe(3-CF3)][Phe(4-COOH)][Bip][Phe(4-COOH)][NMeA][dL][Dab][Cha][Val(3-OH)]SC[Dab][AEEA][γGlu][AEEA]-{NH(CH2)12COOH}; thioether N-14) was 0.054 µM; that for `CC(C)C[C@@H]1NC(=O)[C@H](Cc2c[nH]c3ccccc23)NC(=O)[C@H](CC(=O)O)NC(=O)[C@H](Cc2ccc(C(=O)O)cc2)NC(=O)[C@H](Cc2ccc(OCC(=O)O)cc2)NC(=O)CSC[C@@H](C(=O)N[C@@H](CCCN)C(=O)NCCOCCOCC(=O)NCCCCCCCCCCC(=O)O)NC(=O)[C@H](CO)NC(=O)[C@H](C(C)C)NC(=O)[C@H](CC2CCCCC2)NC(=O)[C@H](CCN)NC(=O)[C@@H](CC(C)C)NC(=O)[C@H](C)N(C)C(=O)[C@H](C(C)C)NC(=O)[C@H](Cc2ccc(-c3ccccc3)cc2)NC1=O` [Example 2095] ({CH2CO}-Y(Carboxymethyl)[Phe(4-COOH)]DWL[Bip]V[NMeA][dL][Dab][Cha]VSC[Orn][AEEA][Aun]-OH; thioether N-14) was 0.0095 µM.
The same measure, in the same setting: the value for `Cc1cccc(C[C@@H]2NC(=O)[C@H](CC(=O)O)NC(=O)[C@H](Cc3ccc(C(=O)O)cc3)NC(=O)[C@H](Cc3ccc(OCC(=O)O)cc3)NC(=O)CSC[C@@H](C(=O)NCC(=O)N[C@@H](CC(=O)NCCOCCOCC(=O)N[C@@H](CC(=O)NCCCCCCCCCCC(=O)O)C(=O)O)C(=O)O)NC(=O)[C@H](CO)NC(=O)[C@H](C(C)C)NC(=O)[C@H](CC(C)C)NC(=O)[C@H](CC(N)=O)NC(=O)[C@@H](CC(C)C)NC(=O)[C@H](C)N(C)C(=O)[C@H](C(C)C)NC(=O)[C@H](Cc3ccc(-c4ccccc4)cc3)NC(=O)[C@H](CC(C)C)NC2=O)c1` [Example 1025] ({CH2CO}-Y(Carboxymethyl)[Phe(4-COOH)]D[Phe(3-Me)]L[Bip]V[NMeA][dL]NLVSCG[βAsp][AEEA][βAsp][Aun]-OH; thioether N-14) was 0.112 µM.
Same read-out and setting: the value for `CC(C)C[C@@H]1NC(=O)[C@H](Cc2c[nH]c3ccccc23)NC(=O)[C@H](CC(=O)O)NC(=O)[C@H](Cc2ccc(C(=O)O)cc2)NC(=O)[C@H](Cc2ccc(OCC(=O)O)cc2)NC(=O)CSC[C@@H](C(=O)N[C@@H](CCCN)C(=O)NCCOCCOCC(=O)NCCCCCCCCCCC(=O)O)NC(=O)[C@H](CO)NC(=O)[C@H](C(C)C)NC(=O)[C@H](CC2CCCCC2)NC(=O)[C@H](CCCCN)NC(=O)[C@@H](CC(C)C)NC(=O)[C@H](C)N(C)C(=O)[C@H](C(C)C)NC(=O)[C@H](Cc2ccc(-c3ccccc3)cc2)NC1=O` [Example 2133] ({CH2CO}-Y(Carboxymethyl)[Phe(4-COOH)]DWL[Bip]V[NMeA][dL]K[Cha]VSC[Orn][AEEA][Aun]-OH; thioether N-14) was 0.0234 µM; that for `CC(C)C[C@@H]1NC(=O)[C@H](Cc2c[nH]c3ccccc23)NC(=O)[C@H](CC(=O)O)NC(=O)[C@H](Cc2ccc(OCC(=O)O)cc2)NC(=O)[C@H](Cc2ccc(OCC(=O)O)cc2)NC(=O)CSC[C@@H](C(=O)N[C@@H](CCN)C(=O)NCCOCCOCC(=O)NCCCCCCCCCCC(=O)O)NC(=O)[C@H](CO)NC(=O)[C@H](C(C)C)NC(=O)[C@H](CC(C)C)NC(=O)[C@H](CCN)NC(=O)[C@@H](CC(C)C)NC(=O)[C@H](C)N(C)C(=O)[C@H](C(C)C)NC(=O)[C@H](Cc2ccc(-c3ccccc3)cc2)NC1=O` [Example 2039] ({CH2CO}-Y(Carboxymethyl)Y(Carboxymethyl)DWL[Bip]V[NMeA][dL][Dab]LVSC[Dab][AEEA][Aun]-OH; thioether N-14) was 0.879 µM.
For the compound `Cc1cccc(C[C@@H]2NC(=O)[C@H](CC(=O)O)NC(=O)[C@H](Cc3ccc(OCC(=O)O)cc3)NC(=O)[C@H](C(C)O)NC(=O)CSC[C@@H](C(=O)N[C@H](CC(N)=O)C(=O)NCCCCCCCCCCC(=O)O)NC(=O)[C@H](C(C)O)NC(=O)[C@H](C(C)C)NC(=O)[C@H](CC3CCCCC3)NC(=O)[C@H](CCN)NC(=O)[C@@H](CC(C)C)NC(=O)[C@H](C)N(C)C(=O)[C@H](CCCNC(N)=O)NC(=O)[C@H](Cc3ccc(-c4ccccc4)cc3)NC(=O)[C@H](C(C)C)NC2=O)c1` (stereo partly drawn) [Example 2313] ({CH2CO}-[Thr(3ξ)]Y(Carboxymethyl)D[Phe(3-Me)]V[Bip][Cit][NMeA][dL][Dab][Cha]V[Thr(3ξ)]C[dN][Aun]-OH; thioether N-14), the half-maximal inhibitory concentration (IC50) was found to be 0.0101 µM.
The same measure, in the same setting: the value for `CC(=O)NCCCC[C@@H]1NC(=O)[C@H](Cc2ccc(-c3ccccc3)cc2)NC(=O)[C@H](Cc2ccc(O)cc2)NC(=O)[C@H](Cc2cccc(C)c2)NC(=O)[C@H](CC(=O)O)NC(=O)[C@H](Cc2ccc(OCC(=O)O)cc2)NC(=O)[C@H](C(C)O)NC(=O)CSC[C@@H](C(=O)N[C@@H](CCN)C(=O)NCCCCCCCCCCC(=O)O)NC(=O)[C@H](C(C)O)NC(=O)[C@H](C(C)C)NC(=O)[C@H](CC2CCCCC2)NC(=O)[C@H](CCN)NC(=O)[C@@H](CC(C)C)NC(=O)[C@H](C)N(C)C1=O` (stereo partly drawn) [Example 2451] ({CH2CO}-[Thr(3ξ)]Y(Carboxymethyl)D[Phe(3-Me)]Y[Bip]K(Ac)[NMeA][dL][Dab][Cha]V[Thr(3ξ)]C[Dab][Aun]-OH; thioether N-14) was 0.0139 µM; that for `CC[C@@H](C)[C@@H]1NC(=O)[C@H](Cc2ccc(-c3ccccc3)cc2)NC(=O)[C@H](C(C)C)NC(=O)[C@H](Cc2c[nH]c3ccccc23)NC(=O)[C@H](CC(=O)O)NC(=O)[C@H](Cc2ccc(OCC(=O)O)cc2)NC(=O)[C@H](Cc2ccncc2)NC(=O)CSC[C@@H](C(=O)N[C@H](CC(N)=O)C(=O)NCCOCCOCC(=O)N[C@@H](CCC(=O)NCCOCCOCC(=O)N[C@@H](CCC(=O)NCCOCCOCC(=O)N[C@@H](CCCN)C(=O)NCCCCCCCCCCC(=O)O)C(=O)O)C(=O)O)NC(=O)[C@H](CO)NC(=O)[C@H](C(C)C)NC(=O)[C@H](CC2CCCCC2)NC(=O)[C@H](CCN)NC(=O)[C@@H](CC(C)C)NC(=O)[C@H](C)N(C)C1=O` [Example 2015] ({CH2CO}-[4Pal]Y(Carboxymethyl)DWV[Bip][aIle][NMeA][dL][Dab][Cha]VSC[dN][AEEA][γGlu][AEEA][γGlu][AEEA][Orn][Aun]-OH; thioether N-14) was 0.0094 µM.

The assay is the same for the next values; noted with them: PE-labeled PD-L1-Ig 20 nM final, Jurkat-hPD-1 cells; read-out: Jurkat HPD1 PDL1 IC50.
Consider `Cc1cccc(C[C@@H]2NC(=O)[C@H](CC(=O)O)NC(=O)[C@H](Cc3ccc(OCC(=O)O)cc3)NC(=O)[C@H]([C@@H](C)O)NC(=O)CSC[C@@H](C(=O)N[C@@H](CCN)C(=O)NCCOCCOCC(=O)NCCCCCCCCCCCC(=O)O)NC(=O)[C@H](CCC(=O)O)NC(=O)[C@H](C(C)C)NC(=O)[C@H](CC3CCCCC3)NC(=O)[C@H](CCN)NC(=O)[C@@H](CC(C)C)NC(=O)[C@H](C)N(C)C(=O)[C@H](Cc3ccc(OCC(=O)O)cc3)NC(=O)[C@H](Cc3ccc(-c4ccccc4)cc3)NC(=O)[C@H](Cc3ccc(O)cc3)NC2=O)c1` [Example 2666] ({CH2CO}-TY(Carboxymethyl)D[Phe(3-Me)]Y[Bip]Y(Carboxymethyl)[NMeA][dL][Dab][Cha]VEC[Dab][AEEA][12Ado]-OH; thioether N-14), for which the half-inhibitory concentration (IC50) amounted to 0.0007 µM.
Same read-out and setting: the value for `Cc1cccc(C[C@@H]2NC(=O)[C@H](CC(=O)O)NC(=O)[C@H](Cc3ccc(OCC(=O)O)cc3)NC(=O)[C@H](Cc3ccsc3)NC(=O)CSC[C@@H](C(=O)N[C@@H](CCN)C(=O)NCCCCCCCCCCC(=O)O)NC(=O)[C@H](CO)NC(=O)[C@H](C(C)(C)O)NC(=O)[C@H](CC3CCCCC3)NC(=O)[C@H](CCN)NC(=O)[C@@H](CC(C)C)NC(=O)[C@H](C)N(C)C(=O)[C@H](Cc3ccc(C(=O)O)cc3)NC(=O)[C@H](Cc3ccc(-c4ccccc4)cc3)NC(=O)[C@H](Cc3ccc(C(=O)O)cc3)NC2=O)c1` [Example 2513] ({CH2CO}-[3Thi]Y(Carboxymethyl)D[Phe(3-Me)][Phe(4-COOH)][Bip][Phe(4-COOH)][NMeA][dL][Dab][Cha][Val(3-OH)]SC[Dab][Aun]-OH; thioether N-14) was 0.0144 µM.
`Cc1cccc(C[C@@H]2NC(=O)[C@H](CC(=O)O)NC(=O)[C@H](Cc3ccc(C(=O)O)cc3)NC(=O)[C@H](Cc3ccc(F)cc3)NC(=O)CSC[C@@H](C(=O)N[C@@H](CCN)C(=O)NCCOCCOCC(=O)NCCOCCOCC(=O)NCCCCCCCCCCC(=O)O)NC(=O)[C@H](CCC(=O)O)NC(=O)[C@H](C(C)C)NC(=O)[C@H](CC3CCCCC3)NC(=O)[C@H](CCN)NC(=O)[C@@H](CC(C)C)NC(=O)[C@H](C)N(C)C(=O)[C@H](Cc3ccc(C(=O)O)cc3)NC(=O)[C@H](Cc3ccc(-c4ccccc4)cc3)NC(=O)[C@H](Cc3ccc(C(=O)O)cc3)NC2=O)c1` [Example 2542] ({CH2CO}-[Phe(4-F)][Phe(4-COOH)]D[Phe(3-Me)][Phe(4-COOH)][Bip][Phe(4-COOH)][NMeA][dL][Dab][Cha]VEC[Dab][AEEA][AEEA][Aun]-OH; thioether N-14): the half-inhibitory concentration (IC50) worked out at 0.0024 µM.
